Reference: US11173152B1, “Glutathione-coated nanoparticles for delivery of MKT-077 across the blood-brain barrier” (UNIVERSITY OF SOUTH FLORIDA, priority 2015, dated 2021)
Where two headings read alike, the source gives them in different places.

Key:
[1] = system: TRANSWELL in vitro BBB model, co-culture of RBE4 (rat brain endothelial) cells with C6 (rat astrocytoma) cells; experiment: In vitro BBB permeation model; format: in vitro ADME; conditions: end of the 48-hour study period, 10 μM equivalent, n=4
Procedure: A […] in vitro BBB model was established to study the BBB permeation of MKT NPs and MKT Glu-NPs compared to drug solution according to a method previously described by the current inventors in [18]. […] permeable inserts were treated with 0.1% rat tail collagen I on the apical and basolateral sides. After 24 hours, C6 (rat astrocytoma) cells were seeded onto the basolateral side of the permeable insert (5×10^4 cells). After 48 hours, RBE4 (rat brain endothelial) cells were seeded onto the apical side of the permeable (5×10^4 cells). Cells were bathed in 1:1 mixture of Ham's F10:MEM media supplemented with 10% FBS with 1.5 mL in the basolateral chamber and 0.5 mL in the apical chamber, and were allowed to incubate (37° C. and 5% CO2) for 24 hours until confluence was established.
After 24 hours, media was replaced with a 1:1 mixture of Ham's F10:MEM media supplemented with 1% FBS (experimental media), and cells were treated with 10 μM equivalent treatments of MKT aqueous drug solution, MKT NPs, and MKT Glu-NPs. 1 mL media samples were aliquoted from the basolateral chamber at predetermined intervals over a 48-hour period to investigate the trans-BBB permeation of the treatments. Aliquots were read by UV spectroscopy (at wavelength of 492 nm (λmax) and compared to UV absorbance of standard dilutions of MKT drug in experimental media (r^2=0.9990).

[2] = blockage by the BBB; cited from earlier work
[3] = rat, in vivo; cited from earlier work
[4] = system: human tau in HeLa cells stably expressing human tau; experiment: Effect on tau level in a cellular AD model (Western blot); format: cell-based; conditions: 3 μM, 24 hours, GAPDH normalization
Procedure: AD model: HeLa cells stably expressing human tau were maintained in OPTIMEM media as described earlier. Treatment with nanoparticles or control were performed for 24 hours and samples analyzed by western blotting, as described earlier.
In order to determine whether the newly formulated MKT-NPs are active, a cellular AD HeLa cell model that stably expresses human tau was used. Cells were treated with 3 μM of MKT uncoated NPs or MKT Glu-NPS or drug in solution or various controls for 24 hours.

[5] = human subjects; cited from earlier work
[6] = dog, in vivo; cited from earlier work
[7] = In vitro drug release (dialysis membrane, PBS pH 7.4); format: physicochemical; conditions: within the initial 4 hours; PBS pH 7.4, 37° C.
Procedure: The drug release profile of MKT from MKT NPs and MKT Glu-NPs was investigated using a method previously described by the current inventors in [14]. 0.05 mg equivalent of MKT aqueous solution, MKT NPs, and MKT Glu-NPs were placed in dialysis membrane tubing ([…]) and placed in 20 mL of release medium comprised of PBS (pH 7.4) stirring at 100 rpm and 37° C. 1 mL aliquots were removed at predetermined intervals over 7 days and analyzed by UV spectroscopy at wavelength of 492 nm (λmax) and compared to UV absorbance of standard aqueous dilutions of MKT drug (r^2=0.9943).

For `CCn1c(=O)/c(=C2\Sc3ccccc3N2C)s/c1=C\c1cccc[n+]1CC.[Cl-]` [MKT-077], the “drug permeated through the BBB model” value [1] is given as 20%, the brain permeation [2] is given as “limited-to-no brain permeation” and the renal toxicity [3] is given as “irreversible renal toxicity”. The “reduction in tau levels” value [4] was “greater and comparable reduction in tau levels”, the renal toxicity [5] was “irreversible renal toxicity” and the renal toxicity [6] was “irreversible renal toxicity”. The drug released [7] was “Approximately 100%”.
